From ChEMBL document CHEMBL4390705, “A new lateral root growth inhibitor from the sponge-derived fungus Aspergillus sp. LS45” (Bioorg Med Chem Lett, 2019)
Calls of active or inactive are those of the source. No cut-off for these calls is given here.

Assays:
Acetylcholinesterase = molecular target: T1, Acetylcholinesterase (Mus musculus, UniProt P21836); experiment: Inhibition of mouse brain homogenate AChE using acetylthiocholine iodide as substrate measured after 15 mins in presence of BChE inhibitor methopropazine hydrochloride by DTNB reagent based colorimetric method; type: tissue-based
T1 sequence (P21836 whole entry): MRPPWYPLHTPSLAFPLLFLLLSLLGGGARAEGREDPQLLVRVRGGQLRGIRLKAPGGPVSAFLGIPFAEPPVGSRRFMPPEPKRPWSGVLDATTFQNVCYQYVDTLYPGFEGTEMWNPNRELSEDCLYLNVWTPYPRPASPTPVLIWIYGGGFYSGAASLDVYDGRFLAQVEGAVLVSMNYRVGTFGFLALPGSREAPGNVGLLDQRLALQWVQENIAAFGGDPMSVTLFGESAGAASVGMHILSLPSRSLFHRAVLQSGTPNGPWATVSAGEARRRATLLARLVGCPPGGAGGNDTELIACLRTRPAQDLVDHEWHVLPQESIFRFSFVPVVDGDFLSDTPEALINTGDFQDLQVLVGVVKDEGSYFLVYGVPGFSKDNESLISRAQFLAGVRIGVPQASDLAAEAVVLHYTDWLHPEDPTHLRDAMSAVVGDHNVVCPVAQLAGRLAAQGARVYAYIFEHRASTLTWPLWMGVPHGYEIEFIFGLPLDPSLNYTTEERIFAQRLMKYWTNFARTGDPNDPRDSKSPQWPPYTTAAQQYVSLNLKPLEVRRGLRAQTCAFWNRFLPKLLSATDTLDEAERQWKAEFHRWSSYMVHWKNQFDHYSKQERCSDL

HCT-116 = experiment: Cytotoxicity against human HCT116 cells by MTT assay; type: functional, cell-based
Arabidopsis thaliana [1] = experiment: Inhibition of seed germination in Arabidopsis thaliana Columbia-0 assessed as reduction in primary root growth up to 100 uM incubated for 10 days under 16 hrs-light/8 hrs-dark condition by microscopic analysis; type: functional, organism-based
K562 = experiment: Cytotoxicity against human K562 cells by MTT assay; type: functional, cell-based
BGC-823 = experiment: Cytotoxicity against human BGC823 cells by MTT assay; type: functional, cell-based
Arabidopsis thaliana [2] = experiment: Inhibition of seed germination in Arabidopsis thaliana Columbia-0 assessed as reduction in lateral root growth up to 100 uM incubated for 10 days under 16 hrs-light/8 hrs-dark condition by microscopic analysis; type: functional, organism-based
AGS = experiment: Cytotoxicity against human AGS cells by MTT assay; type: functional, cell-based
MDA-MB-231 = experiment: Cytotoxicity against human MDA-MB-231 cells by MTT assay; type: functional, cell-based
CCRF-CEM = experiment: Cytotoxicity against human CCRF-CEM cells by MTT assay; type: functional, cell-based
Arabidopsis thaliana [3] = experiment: Inhibition of seed germination in Arabidopsis thaliana Columbia-0 assessed as reduction in lateral root growth at 50 to 100 uM incubated for 10 days under 16 hrs-light/8 hrs-dark condition by microscopic analysis; type: functional, organism-based
Arabidopsis thaliana [4] = experiment: Inhibition of seed germination in Arabidopsis thaliana Columbia-0 assessed as reduction in primary root growth at 100 uM incubated for 10 days under 16 hrs-light/8 hrs-dark condition by microscopic analysis; type: functional, organism-based
Arabidopsis thaliana [5] = experiment: Inhibition of seed germination in Arabidopsis thaliana Columbia-0 assessed as reduction in primary root growth at 50 uM incubated for 10 days under 16 hrs-light/8 hrs-dark condition by microscopic analysis; type: functional, organism-based

Row | Compound | IC50 (Acetylcholinesterase) | IC50 (HCT-116) | inhibition (Arabidopsis thaliana [1]) | IC50 (K562) | IC50 (BGC-823) | inhibition (Arabidopsis thaliana [2]) | IC50 (AGS) | IC50 (MDA-MB-231) | IC50 (CCRF-CEM) | inhibition (Arabidopsis thaliana [3]) | inhibition (Arabidopsis thaliana [4]) | inhibition (Arabidopsis thaliana [5])
1 | CCCC1=C/C(=C\[C@H](O)[C@@H](C)O)OC1=O | > 200 µM | > 50 µM | inactive | > 50 µM | > 50 µM | inactive | > 50 µM | > 50 µM | > 50 µM | – | – | –
2 | Nc1cc(F)ccc1NC(=O)c1ccc(CNC(=O)/C=C/c2cccnc2)cc1 [TUCIDINOSTAT] | – | – | – | 1.34 µM | – | – | – | – | 0.63 µM | – | – | –
3 | CCCC1=C/C(=C/[C@H](O)[C@@H](C)O)OC1=O | > 200 µM | > 50 µM | – | > 50 µM | > 50 µM | – | > 50 µM | > 50 µM | > 50 µM | Active | inactive | Active
4 | CC[C@H](O)c1oc(=O)cc(OC)c1C | > 200 µM | > 50 µM | inactive | > 50 µM | > 50 µM | inactive | > 50 µM | > 50 µM | > 50 µM | – | – | –
5 | CC(C)c1ccc(CO)c2ccc(C(=O)O)cc12 | > 200 µM | – | – | 12.9 µM | – | – | – | – | 13.8 µM | Active | inactive | Active
